Results: patent publication US11401516B2, “Channel modulators” (AUCKLAND UNISERVICES LIMITED, priority 2014, dated 2022)

Experiments:
[1] = biological target: T1, hemichannel activity in HCMVEC cells (Homo sapiens, UniProt P17302); test: Whole-cell voltage clamp, hCMVEC cells; assay type: cell-based; conditions: for hemichannel activity: 50 μM
T1 construct: isolated human cerebral microvascular endothelial cells (hCMVEC); endogenous in cells; host or cells: hCMVEC
Procedure: Whole-cell voltage clamp studies were conducted on connexin deficient HeLa cells, Connexin43 transfected HeLa cells and isolated human cerebral microvascular endothelial cells (hCMVEC).
HCMVEC Cells were placed into an extracellular artificial cerebral spinal fluid solution containing (in mM): 144 NaCl, 3.3 KCl, 1.8 CaCl2, 1.8 MgCl2, 10 mM glucose, pH: 7.385 at temperature 37° C. The intracellular pipette solution contained (in mM): 130 KCl, 10 sodium aspartate, 0.26 CaCl2, 2 EGTA, 5 tetraethylammonium-Cl, 1 MgCl2,3 MgATP, 5 Hepes at pH 7.2; and was kept on ice to prevent MgATP breakdown. Pipette resistance was 3.4MΩ with seal resistance=1.3 GΩ. Voltage and perfusion protocols are conducted simultaneously, with cells continuously perfused. Recordings for analysis were taken before Tonabersat perfusion, during and after washout. For channel block studies, 50 μM Tonabersat was washed in for three mins prior to recording, and subsequently washed out three mins before taking the washout recordings.

[2] = tested on: Cx43 hemichannel and pannexin channel mediated ATP release from hCMVEC cells; test: In vitro ischaemia injury ATP assay; assay type: cell-based, human; conditions: for ATP release, percentage of the injury control: 2-hour injury
Procedure: (§1) Using an in vitro ischemia injury model, the Cx43 hemichannel and pannexin channel mediated ATP release was differentiated using the connexin hemichannel blocking mimetic peptide5 at 100 μM concentration (S. J. O'Carroll, et al., Cell communication & adhesion 15, 27 (May, 2008)) and 1 mM Probenecid (W. R. Silverman et al., The Journal of biological chemistry 284, 18143 (Jul. 3, 2009)).
Human cerebral microvascular endothelial cells (hCMVEC) were trypsinised (TrypLE Express, Life technologies) and plated at a density of 0.025×10^6 cells per well in a collagen-coated 12-well plate (1 μg/cm2) a day prior to the experiment. Cells were incubated in culture medium overnight. Hypoxic, acidic, ion-shifted Ringer injury solution that mimics ionic concentrations and acid-base shifts of the interstitial space in hypoxic-ischemic brains (A. Bondarenko, et al., Glia 34, 143 (Apr. 15, 2001)) was used to trigger hemichannel opening. The injury solution (in mM): 38 NaCl, 13 NaHCO3, 3 Na-gluconate, 65 K-gluconate, 38 NMDG-Cl, 1 NaH2PO4, 1.5 MgCl2, was bubbled in N2 gas (>99% purity, 20 L/min) for 5 minutes and pH adjusted to 6.6 using 5 M HCl. Control solution that mimics physiological conditions contained (in mM): 124 NaCl, 3 KCl, 26 NaHCO3, […], 1 NaH2PO4, 1.3 CaCl2, 1.5 MgCl2, and 10 Glucose, and pH 7.4 was adjusted using 5 M HCl (Bondarenko, 2001). […] Following a 2-hour injury the solutions were immediately placed on ice. In the injury and reperfusion model, hCMVEC cells were incubated in 500 μL of normal solution or injury solution for 2 hours at 37° C. in 95% O2 and 5% CO2. Following 2 hour injury, the solutions were discarded and replaced with 500 μL of the normal solution, or Tonabersat (10 μM) dissolved in normal solution, and were incubated for 2 hours at 37° C. in 95% O2 and 5% CO2. These solutions were also then immediately placed on ice. Peptide5 (100 μM)+/−Probenecid (1 mM) were used as controls for both injury and injury-reperfusion models. ATP concentration in the samples was determined using a Luciferin/luciferase bioluminescence reaction (ATP Determination Kit, Molecular Probes) and detected using a luminescence plate reader (VICTOR X, Perkin Elmer #2030-0010). Standard curves were generated in each experiment from an ATP standard (500 nM) to quantify the concentration of ATP in the test samples. The data is presented as mean±standard error relative to the injury or injury-reperfusion control. Statistically significant differences between samples were identified using one-way analysis of variance and Tukey's multiple comparisons test.

[3] = tested on: Cx43 hemichannel and pannexin channel mediated ATP release from hCMVEC cells; test: In vitro ischaemia injury-reperfusion ATP assay; assay type: cell-based, human; conditions: 2-hour injury then 2-hour reperfusion; 100 μM CBX, 100 μM Peptide5, 1 mM Probenecid, 10 μM Tonabersat
Procedure: as §1
Human cerebral microvascular endothelial cells (hCMVEC) were trypsinised (TrypLE Express, Life technologies) and plated at a density of 0.025×10^6 cells per well in a collagen-coated 12-well plate (1 μg/cm2) a day prior to the experiment. Cells were incubated in culture medium overnight. Hypoxic, acidic, ion-shifted Ringer injury solution that mimics ionic concentrations and acid-base shifts of the interstitial space in hypoxic-ischemic brains (A. Bondarenko, et al., Glia 34, 143 (Apr. 15, 2001)) was used to trigger hemichannel opening. […] ATP concentration in the samples was determined using a Luciferin/luciferase bioluminescence reaction (ATP Determination Kit, Molecular Probes) and detected using a luminescence plate reader (VICTOR X, Perkin Elmer #2030-0010). Standard curves were generated in each experiment from an ATP standard (500 nM) to quantify the concentration of ATP in the test samples. […]

T1 sequence (P17302 2-382): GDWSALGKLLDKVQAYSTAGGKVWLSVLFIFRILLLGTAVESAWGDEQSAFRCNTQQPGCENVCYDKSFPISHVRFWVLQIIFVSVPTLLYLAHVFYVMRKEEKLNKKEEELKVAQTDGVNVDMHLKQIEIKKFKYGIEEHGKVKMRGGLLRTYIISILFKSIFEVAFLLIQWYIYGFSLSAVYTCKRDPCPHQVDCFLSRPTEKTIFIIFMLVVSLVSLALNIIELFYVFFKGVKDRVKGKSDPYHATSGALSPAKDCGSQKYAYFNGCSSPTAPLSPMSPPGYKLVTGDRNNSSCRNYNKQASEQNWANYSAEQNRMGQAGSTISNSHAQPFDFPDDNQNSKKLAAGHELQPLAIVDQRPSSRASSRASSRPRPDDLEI

For CC(=O)c1ccc2c(c1)[C@H](NC(=O)c1ccc(F)c(Cl)c1)[C@H](O)C(C)(C)O2 [Tonabersat, N-[(3S,4S)-6-acetyl-3-hydroxy-2,2-dimethyl-3,4-dihydrochromen-4-yl]-3-chloro-4-fluorobenzamide], the “time to block connexin hemichannels” value [1] was “within one minute”, the hemichannel activity ([1]; after three minutes of washout) was “some activity returning after washout” and the hemichannel activity ([1]; during incubation) was “almost completely abolishes hemichannel activity”. For the same compound, the “difference between CBX and 10 μM Tonabersat in 1 mM Probenecid” value [2] was 14.9±4%, the “ATP release, percentage of the injury control” value ([2]; 0.1 μM Tonabersat in combination with 1 mM Probenecid) was 85.9±2.4% and the “ATP release from hCMVEC cells” value ([2]; 0.1 μM to 100 μM Tonabersat in the absence of 1 mM Probenecid) was “did not reduce ATP release”. The “ATP release, percentage of the injury control” value ([2]; 1 μM Tonabersat in combination with 1 mM Probenecid) was 75.9±2.3%, the “ATP release, percentage of the injury control” value ([2]; 10 μM Tonabersat in combination with 1 mM Probenecid) was 58.5±1.9% and the “ATP release, percentage of the injury control” value ([2]; 100 μM Tonabersat in combination with 1 mM Probenecid) was 70.5±3.9%. For the same compound, the “difference in inhibition, 10 μM versus 100 μM Tonabersat” value ([2]; each with 1 mM Probenecid) was 12.1±3.2% and the “ATP release, percentage of the injury-reperfusion (IR) control” value [3] was 68.9±6.9%.
